From PubChem BioAssay (NCI) come the findings set out here.

Common to all, as to test: growth of human tumour cells (NCI), 48 h
In experiment [1] the test system is A498 renal.
The subject of experiment [2] is HOP-62 NSCLC.
Experiment [3] deals with SN12C renal.
Experiment [4] has as its system PC-3 prostate.
Experiment [5] relates to NCI-H23 lung.
Experiment [6] relates to M14 melanoma.
The test system of experiment [7] is HCT-15 colon.
In experiment [8] the test system is HCT-116 colon.
In experiment [9] the test system is COLO 205 colon.
Experiment [10] has as its system OVCAR-4 ovarian.

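How tested: cells in 96-well plates exposed to compound for 48 hours at five concentrations. GI50: concentration for 50% inhibition of growth. TGI marks complete inhibition of growth.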

Consider `CC(=O)OCC1OC(n2c3c(c(-c4cccc5ccccc45)c(C#N)c2=S)CCCC3)C(OC(C)=O)C(OC(C)=O)C1OC(C)=O` (stereo not given), for which the TGI in [1], in experiment [2], in [3], in experiment [4], in [5] and in experiment [6] was greater than 100 µM in each case. The TGI in experiment [7], in [8], in [9] and in experiment [10] was greater than 100 µM throughout.
Consider `CC(C)=CCC[C@@H](C)C1=C(Nc2ccccc2Cl)C(O)=C(C)C(=O)C1=O`, for which the TGI is 27.4 µM in experiment [1]; 22.7 µM in [2]; 25.2 µM in experiment [3]; greater than 100 µM in experiment [4]; 15.9 µM in experiment [5]; 33.5 µM in experiment [6]. In addition, the TGI in experiment [7] was 36 µM; in experiment [8], greater than 43.7 µM; in experiment [9], 9.8 µM; in experiment [10], 43.3 µM.
On to `Nc1nc(-c2ccccc2N=NN2CCCC2)nc2ccccc12`, for which the TGI in experiment [1] stood at 20.2 µM; in experiment [2], 5.11 µM; in experiment [3], 3.43 µM; in [4] it was 15.4 µM; in [5], 8.06 µM; in [6] it was 12.5 µM. Further, the TGI was determined as 11.1 µM in experiment [7], 2.55 µM in [8], 10.4 µM in experiment [9] and 19.1 µM in experiment [10].
For the compound `N#CC(C#N)=C1C(C#N)=C(N)NC12OCCO2`, the TGI in experiment [1], in experiment [2], in experiment [3], in experiment [4], in experiment [5] and in experiment [6] was greater than 100 µM in each case. The TGI in experiment [7], in experiment [8], in [9] and in [10] was greater than 100 µM each time.
`Cc1cc(C)c(P2C(=C(O[Si](C(C)C)(C(C)C)C(C)C)C(C)(C)C)C2(c2ccccc2)c2ccccc2)c(C)c1` (stereo not given): the TGI in [1], in experiment [2], in [3], in experiment [4], in experiment [5] and in [6] was greater than 100 µM each time. The TGI in experiment [7], in experiment [8], in experiment [9] and in experiment [10] was greater than 100 µM throughout.
As to `CC[N+](C)(CC)CCC(O)(c1ccccc1)c1ccccc1`, the TGI in [1], in experiment [2], in experiment [3], in experiment [4], in experiment [5] and in experiment [6] was greater than 100 µM each time. The TGI in [7], in experiment [8], in [9] and in experiment [10] was greater than 100 µM throughout.
Turning to `COc1cccc(CC(C)NCC(O)c2ccc(O)c(O)c2)c1` (stereo not given), the TGI is greater than 100 µM in experiment [1]; greater than 100 µM in experiment [2]; 83.8 µM in experiment [3]; greater than 100 µM in [4]; greater than 100 µM in [5]; greater than 100 µM in [6]. The TGI in [7], in experiment [8], in [9] and in experiment [10] was greater than 100 µM each time.
For the compound `O=[N+]([O-])c1c(Br)cc(Br)c2c1Nc1c(ccc(Cl)c1Cl)S2`, the TGI amounted to 39.1 µM in experiment [1]; 34.9 µM in experiment [2]; 27.9 µM in [3]; 35 µM in experiment [4]; 29.6 µM in experiment [5]; 23.6 µM in experiment [6]. In addition, the TGI in experiment [7] was 39.7 µM; in experiment [8], 19.1 µM; in experiment [9], 26.3 µM; in experiment [10], 28.7 µM.
Regarding `N=c1oc2ccc3ccccc3c2cc1C(N)=O`, the TGI in experiment [1], in [2], in [3], in experiment [4], in experiment [5] and in [6] was greater than 100 µM in each case. The TGI in [7], in experiment [8], in experiment [9] and in [10] was greater than 100 µM each time.
As for `O=C(CCN1CCCC1)Nc1ccc2sc3ccccc3c(=O)c2n1`, the TGI in experiment [1] came to 33.7 µM; in experiment [2], 19.6 µM; in experiment [3], 21.3 µM; in experiment [4], 22.2 µM; in experiment [5], 22.9 µM; in experiment [6] it was 17.6 µM. Further, the TGI in [7] was found to be 16.8 µM; in experiment [8], 16.4 µM; in experiment [9] it was 16.3 µM; in experiment [10] it was 21.7 µM.
As to `CCOC(=O)C(NC(=O)N(C1=NCC(C)S1)C1CCCCC1)(OC)C(F)(F)F` (stereo not given), the TGI in experiment [1] was 44.4 µM; in [2], 41.7 µM; in [3], 29.3 µM; in experiment [4], greater than 100 µM; in experiment [5] it was greater than 100 µM; in experiment [6] it was greater than 100 µM. In addition, the TGI in experiment [7] was greater than 100 µM; in [8] it was greater than 100 µM; in experiment [9] it was 50.8 µM; in experiment [10], greater than 100 µM.
In the case of `CC[N+]1(C)CCC(O)(/C=C/c2ccc(OC)cc2)C(C(=O)/C=C/c2ccc(OC)cc2)C1` (stereo not given), the TGI is 31.4 µM in [1]; 42.9 µM in experiment [2]; greater than 58.5 µM in [3]; 42.6 µM in [4]; 42.6 µM in experiment [5]; 30.8 µM in experiment [6]. Further, the TGI in experiment [7] was greater than 55.4 µM; in experiment [8], greater than 48.3 µM; in [9] it was 8.08 µM; in experiment [10], greater than 59.6 µM.
`COc1cc2nc(-c3ccc4ccccc4c3)[nH]c(=O)c2cc1OC`: the TGI in [1] is greater than 100 µM; in experiment [2], 84.3 µM; in experiment [3], greater than 100 µM; in experiment [4] it was greater than 100 µM; in experiment [5], greater than 100 µM; in experiment [6], greater than 100 µM. Also, the TGI in experiment [7], in [8], in experiment [9] and in [10] was greater than 100 µM throughout.
`CN(C)CCNC(=O)c1ccc(NCCCN(C)CCCNc2ccc3c(=O)n(CCN(C)C)c(=O)n4c5ccccc5c(=O)c2c34)c2c(=O)c3ccccc3[nH]c12`: the TGI was 0.415 µM in experiment [1]; 0.309 µM in experiment [2]; 0.262 µM in [3]; 0.249 µM in experiment [4]; 0.27 µM in [5]; 0.67 µM in experiment [6]. The TGI in experiment [7] was determined as 1.31 µM; in experiment [8] it was 0.0704 µM; in experiment [9] it was 0.353 µM; in experiment [10], 0.197 µM.
In the case of `CCCCc1cc2c(C)cc(=O)oc2c(O)c1O`, the TGI in experiment [1] is 72 µM; in [2], 65.8 µM; in experiment [3], greater than 100 µM; in experiment [4], 68.1 µM; in experiment [5] it was greater than 100 µM; in [6] it was 85 µM. The TGI in experiment [7] was greater than 100 µM; in experiment [8] it was 96.1 µM; in experiment [9], 56.5 µM; in experiment [10], greater than 100 µM.
`Cc1cc(=O)n2nc(SCc3ccccc3)sc2n1`: the TGI in experiment [1], in experiment [2], in [3], in experiment [4], in experiment [5] and in [6] was greater than 100 µM throughout. Moreover, the TGI in experiment [7], in [8], in [9] and in experiment [10] was greater than 100 µM in each case.
With `CC(=O)O[C@@H]1C[C@@]23C[C@@]24CC[C@H](OC2OCC(O)C(O)C2O)C(C)(C)[C@@H]4CC=C3[C@]2(C)C[C@@H]3OC4(C[C@@H](C)[C@@H]3[C@@]12C)OC(O)[C@@]1(C)O[C@@H]41` (stereo not given in full), the TGI was greater than 100 µM in experiment [1]; 78.3 µM in experiment [2]; greater than 100 µM in experiment [3]; 61.1 µM in experiment [4]; greater than 100 µM in [5]; greater than 100 µM in experiment [6]. For the same compound, the TGI in experiment [7] is 96.7 µM; in experiment [8] it was 49.7 µM; in [9] it was 44 µM; in experiment [10] it was greater than 100 µM.
`Cc1cc(/C=C\c2ccc3ccccc3[n+]2C)c(O)c2ncccc12`: the GI50 in experiment [1] is 0.18 µM; in experiment [2], 0.497 µM; in experiment [3], 0.375 µM; in experiment [4], 0.855 µM; in experiment [5] it was 0.276 µM; in experiment [6], 0.167 µM. Besides, the GI50 in experiment [7] is 1.52 µM; in [8] it was 0.116 µM; in experiment [9] it was 0.448 µM; in experiment [10] it was 0.323 µM. Moreover, the TGI in experiment [1] is 3.01 µM; in [2] it was 8.03 µM; in [3] it was 8.95 µM; in experiment [4], 7.58 µM; in [5], 3.25 µM; in [6], 1.11 µM. Also, the TGI was 17.8 µM in experiment [7], 1.41 µM in experiment [8], 4.58 µM in [9] and 1.73 µM in [10].
